In PMC5790467, “Enhanced anti-tumor efficacy and mechanisms associated with docetaxel-piperine combination- in vitro and in vivo investigation using a taxane-resistant prostate cancer model” (Oncotarget, 2017):
Converted amounts (≈) assume the structure as drawn. Read-outs that look alike come from different tables or passages of the source.

Legend:
[1] = Body weight and tolerability in mice with TxR tumor xenografts
Procedure: For oral administration of PIP, in 1 ml of PIP dosing solution, 100 µl of its stock solution was solubilized with 500 µl of PEG 400 and 400 µl of physiological saline and the mixture was administrated orally to mice at the dose of 0.1 ml/10 g body weight. […] On Day 0, mice with PC3 cell xenografts were divided into two groups and mice with PC3-TxR cell xenografts were divided into four groups. Mice in each group were treated according to Supplementary Table 3 and the drug dosing lasted for 2 weeks with body weight and tumor sized measured twice per week. […] At the end of experiment, the mice were anesthetized followed by haemospasia to death by cardiac puncture.

[2] = target: P-gp (Homo sapiens, UniProt P08183); assay: Intracellular DTX accumulation in PC3-TxR cells; format: cell-based; details: 100 nM DTX; PIP at 50 μg/ml; 120 min; positive control 10 μg/ml of PSC833
Procedure: The PC3 and PC3-TxR cells were seeded in 6-well plate with density of 1×10^4 cells/ml and grew for 24 hours. […] The cells were then lysed and the protein level was measured using a BCA approach (Bio Rad Laboratory, Hercules, CA, USA). […] Briefly, to 0.1 ml of cell lysate, 0.3 ml of tert-butyl methyl ether was added and vortexed for 3 min. The upper organic layer was separated and evaporated to dryness. The residue was reconstituted using 0.1 ml of 80% acetonitrile and 10 μl was injected to an HPLC-MS/MS system for quantification. Paclitaxel was used as internal standard. The intracellular concentration was normalized per protein concentration. […] PSC833 (10 μg/ml) was used as positive control. […] The amount of DTX was compared among these treatment groups.

[3] = tested on: PC3-TxR cells; assay: Microarray gene expression profiling of PC3-TxR cells treated with PIP; format: cell-based, human; details: 6 h
Procedure: The microarray technique was utilized to identify the potential mechanisms related to the chemosensitizing effect of PIP in PC3-TxR cells by determining the gene expression profile at the whole genome level. PC3-TxR cells were seeded at a density of 1 × 10^5 cells/ml in DMEM supplemented with 10% fetal bovine serum and cultured for 24 h. The cells were then treated with PIP at concentrations of 25 and 50 μg/ml (as low and high concentrations respectively) for 6 h. PIP was initially dissolved in DMSO and diluted to the target concentrations using DMEM. DMSO (0.5%) was used as the negative control (n = 2). Total RNA was extracted using RNeasy Mini Kit (QIAGEN, Valencia, CA, USA) according to the manufacturer’s protocol. The RNA was measured and the quality was checked using the RNA 6000 LabChip and Agilent 2100 BioAnalyzer. Only the high-quality RNA samples (e.g. RNA integrity number greater than 9.0) were used for subsequent microarray procedure performed at the Functional Genomics Core, Beckman Research Institute, City of Hope Comprehensive Cancer Center. Affymetrix Human Genome U133 Plus 2.0 arrays (Santa Clara, CA, USA) containing 54,675 probe sets detecting over 47,000 transcripts were used. The RNA samples were randomized and blinded prior to the microarray processing/analysis. The cRNA synthesis and labeling were carried out following the Affymetrix GeneChip 3′ IVT Express standard preparation protocol using […] of total RNA from each sample, along with polyA spike-in controls. The cRNA samples were converted to double-stranded cDNA. After second-strand synthesis, the cDNA was purified with the GeneChip sample cleanup module (Affymetrix, Santa Clara, CA). Biotinylated cRNAs were then synthesized by in vitro transcription. For each sample, […] of biotinylated cRNA along with hybridization spiked controls (bioB, bioC, bioD, and cre) was hybridized with Affymetrix Human Genome U133 Plus 2.0 array for 16 h at 45°C. Following hybridization, arrays were washed, stained, and then scanned with an Affymetrix GeneChipH 3000 7G scanner.
Statistical testing and additional analysis of the microarray data were conducted using Partek “Gene Expression” Workflow, i.e., Filtering, PCA, Sample Histogram, QC metrics, Gene Clustering, and ANOVA Analysis). The probe-set level expression data were summarized with Robust Multichip Average (RMA) by taking all 8 microarrays together. PCA and hierarchical clustering analysis (HCA) combined with heatmap was used to assess the quality of the microarray data by evaluating the reproducibility and variation of three replicates within each group and the differences among the three groups. The log2-transformed expression intensities of 54,675 probe sets from the 8 microarrays were used to calculate the Pearson Correlation Coefficient and Ward’s Minimum Variance method was used to calculate the distance between samples.
The differentially expressed genes (DEGs) between the treatment and control group were identified using cutoffs of t-test p value < 0.05 and fold change >2. The DEGs and probe sets were selected separately by comparing each treatment group with the control group. The dose dependent DEGs were than selected by overlapping the two DEGs sets. A functional annotation of these genes was carried out, using a gene ontology-based analysis of biological properties.

[4] = tested on: PC3-TxR cells; assay: Cell viability (cytotoxicity) of PC3-TxR cells; format: cell-based; details: Homo sapiens, triplicate samples, read-out: IC50, cytotoxicity of PIP on PC3-TxR
Text: www.impactjournals.com/oncotarget/ Oncotarget, Supplementary Materials 2017
investigation using a taxane-resistant prostate cancer model
Supplementary Figure 1: Cell viability (measured from triplicate samples) of PC3-TxR cells. (A) The cytotoxicity of PIP
(1 picture or pasted object on this page, not shown here)

[5] = tested on: Caco-2 monolayer model; parameters: method as in PMID 12130727; details: cited from earlier work
[6] = tested on: MCF-7/DOX; parameters: method as in PMID 21802927; details: PIP at 50 μM; cited from earlier work
[7] = tested on: A-549/DDP; parameters: method as in PMID 21802927; details: PIP at 50 μM; cited from earlier work
[8] = i.g.; female Fischer rats; cited from earlier work

Sequence of P-gp (P08183 whole entry): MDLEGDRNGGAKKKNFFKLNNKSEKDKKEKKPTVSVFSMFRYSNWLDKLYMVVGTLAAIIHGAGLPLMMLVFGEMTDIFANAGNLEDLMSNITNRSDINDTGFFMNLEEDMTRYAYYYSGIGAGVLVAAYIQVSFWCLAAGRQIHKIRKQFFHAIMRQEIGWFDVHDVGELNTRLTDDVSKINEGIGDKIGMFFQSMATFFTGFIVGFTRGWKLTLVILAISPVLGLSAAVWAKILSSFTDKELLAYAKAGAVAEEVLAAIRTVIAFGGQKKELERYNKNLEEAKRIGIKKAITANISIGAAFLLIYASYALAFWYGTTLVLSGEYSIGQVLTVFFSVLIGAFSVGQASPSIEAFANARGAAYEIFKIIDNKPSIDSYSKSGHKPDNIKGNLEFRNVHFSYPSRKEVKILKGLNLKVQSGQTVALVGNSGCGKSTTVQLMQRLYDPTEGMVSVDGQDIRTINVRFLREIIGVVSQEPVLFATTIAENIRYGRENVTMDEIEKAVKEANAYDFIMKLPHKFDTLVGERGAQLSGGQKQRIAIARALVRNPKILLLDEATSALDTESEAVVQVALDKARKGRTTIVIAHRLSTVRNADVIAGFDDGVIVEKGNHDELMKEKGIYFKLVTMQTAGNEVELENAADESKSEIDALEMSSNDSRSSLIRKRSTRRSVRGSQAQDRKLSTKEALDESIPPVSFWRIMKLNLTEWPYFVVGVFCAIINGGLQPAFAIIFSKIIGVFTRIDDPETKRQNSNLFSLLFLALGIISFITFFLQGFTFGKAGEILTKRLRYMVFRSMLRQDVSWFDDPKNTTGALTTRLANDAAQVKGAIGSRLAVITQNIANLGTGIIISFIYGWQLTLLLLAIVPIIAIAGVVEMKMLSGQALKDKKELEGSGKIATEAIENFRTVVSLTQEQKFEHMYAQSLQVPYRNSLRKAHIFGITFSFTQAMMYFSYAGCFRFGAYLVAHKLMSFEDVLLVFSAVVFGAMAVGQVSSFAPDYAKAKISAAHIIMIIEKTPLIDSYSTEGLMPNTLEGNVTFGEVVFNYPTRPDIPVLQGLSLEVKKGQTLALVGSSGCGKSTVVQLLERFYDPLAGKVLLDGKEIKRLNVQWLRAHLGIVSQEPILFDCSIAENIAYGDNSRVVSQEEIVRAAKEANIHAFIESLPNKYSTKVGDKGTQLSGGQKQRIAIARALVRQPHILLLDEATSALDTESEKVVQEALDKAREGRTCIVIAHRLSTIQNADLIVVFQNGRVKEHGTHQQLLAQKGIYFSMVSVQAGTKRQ

Structure (SMILES): O=C(/C=C/C=C/c1ccc2c(c1)OCO2)N1CCCCC1 [PIP, 1-piperoyl piperidine]
- response of mice to PIP at higher dose ([1]; PIP at 100 mg/kg, mice implanted with taxane-resistant prostate cancer): severe excitation responses
- percentage of bodyweights ([1]; TxR tumor xenograft mice, two weeks of treatment, control 96%): 98%
- intracellular DTX concentration in PC3-TxR cells [2]: increased to a level similar to that in the positive control
- expression change of Angiopoietin-like 4 ([3]; High dose PIP): 1.6
- expression change of CYP1B1 ([3]; High dose PIP): −4.3
- expression change of Fatty acid binding protein 4, adipocyte ([3]; High dose PIP): 1.9
- expression change of Keratin associated protein 2–3 ([3]; High dose PIP): −4.7
- expression change of Keratin associated protein 3–1 ([3]; High dose PIP): −2.7
- expression change of Metastasis associated lung adenocarcinoma transcript 1 (non-protein coding) ([3]; High dose PIP): 4.1
- expression change of O-linked N-acetylglucosamine (GlcNAc) transferase ([3]; High dose PIP): 2.3
- expression change of Sodium channel, non-voltage-gated 1, gamma subunit ([3]; High dose PIP): 1.5
- expression change of TCDD-inducible poly(ADP-ribose) polymerase ([3]; High dose PIP): −2.6
- expression change of Thrombospondin 1 ([3]; High dose PIP): −2.4
- expression change of Angiopoietin-like 4 ([3]; Low dose PIP): 2.3
- expression change of CYP1B1 ([3]; Low dose PIP): −5.1
- expression change of Fatty acid binding protein 4, adipocyte ([3]; Low dose PIP): 2.5
- expression change of Keratin associated protein 2–3 ([3]; Low dose PIP): −3.3
- expression change of Keratin associated protein 3–1 ([3]; Low dose PIP): −2.0
- expression change of Metastasis associated lung adenocarcinoma transcript 1 (non-protein coding) ([3]; Low dose PIP): 3.0
- expression change of O-linked N-acetylglucosamine (GlcNAc) transferase ([3]; Low dose PIP): 2.0
- expression change of Sodium channel, non-voltage-gated 1, gamma subunit ([3]; Low dose PIP): 2.5
- expression change of TCDD-inducible poly(ADP-ribose) polymerase ([3]; Low dose PIP): −2.8
- expression change of Thrombospondin 1 ([3]; Low dose PIP): −2.2
- IC50 [4]: 47.3 µg/mL (≈ 166 µM)
- IC50 ([5]; read-out: IC50 of inhibition of the transport of cyclosporine A): 74.1 µM
- IC50 ([5]; read-out: IC50 of inhibition of the transport of digoxin): 15.5 µM
- enhancement of the sensitivity to doxorubicin [6]: 32 folds
- enhancement of the sensitivity to doxorubicin [7]: 14 folds
- LD50 [8]: 514 mg/kg
